Source: PubChem BioAssay AID1963982 (Molecular Pharmacology Branch, DTP, NCI, 2024)

Test system: 313798-341-R-J2-PDC spheroids, viability
Assay: Anticancer human tumor 313798-341-R-J2-PDC patient-derived cervical squamous cell carcinoma cell line growth inhibition [PI3K]
Conditions: spheroids with HUVEC and MSC; for IC50: curve of first compound; for viability, T/C: stronger effect = lower value
How it was run: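 Viability of mixed-cell spheroids was determined after exposure to pairwise combinations, one partner being inavolisib, alpelisib, duvelisib or copanlisib. Highest tested concentration matched clinical Cmax where known and 10 microM where not, descending in half-log steps.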

[1] = second compound 0.00316 µM, first compound 0.0316 µM
[2] = second compound 0.00316 µM, first compound 0.1 µM
[3] = second compound 0.00316 µM, first compound 0.316 µM
[4] = second compound 0.00316 µM, first compound 1 µM
[5] = second compound 0.00316 µM, first compound 3.16 µM
[6] = second compound 0.00316 µM, first compound 10 µM
[7] = second compound 0.01 µM, first compound 0.0316 µM
[8] = second compound 0.01 µM, first compound 0.1 µM
[9] = second compound 0.01 µM, first compound 0.316 µM
[10] = second compound 0.01 µM, first compound 1 µM
[11] = second compound 0.01 µM, first compound 3.16 µM
[12] = second compound 0.01 µM, first compound 10 µM
[13] = second compound 0.0316 µM, first compound 0.0316 µM
[14] = second compound 0.0316 µM, first compound 0.1 µM
[15] = second compound 0.0316 µM, first compound 0.316 µM
[16] = second compound 0.0316 µM, first compound 1 µM
[17] = second compound 0.0316 µM, first compound 3.16 µM
[18] = second compound 0.0316 µM, first compound 10 µM
[19] = second compound 0.1 µM, first compound 0.0316 µM
[20] = second compound 0.1 µM, first compound 0.1 µM
[21] = second compound 0.1 µM, first compound 0.316 µM
[22] = second compound 0.1 µM, first compound 1 µM
[23] = second compound 0.1 µM, first compound 3.16 µM
[24] = second compound 0.1 µM, first compound 10 µM
[25] = second compound 0.316 µM, first compound 0.0316 µM
[26] = second compound 0.316 µM, first compound 0.1 µM
[27] = second compound 0.316 µM, first compound 0.316 µM
[28] = second compound 0.316 µM, first compound 1 µM
[29] = second compound 0.316 µM, first compound 3.16 µM
[30] = second compound 0.316 µM, first compound 10 µM
[31] = second compound 1 µM, first compound 0.0316 µM
[32] = second compound 1 µM, first compound 0.1 µM
[33] = second compound 1 µM, first compound 0.316 µM
[34] = second compound 1 µM, first compound 1 µM
[35] = second compound 1 µM, first compound 3.16 µM
[36] = second compound 1 µM, first compound 10 µM
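Note: spheroids exposed to compounds for seven days.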
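Throughout, for viability, T/C: 100% = DMSO vehicle control viability.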

C#Cc1c(F)ccc2cc(O)cc(-c3ncc4c(N5CC6CCC(C5)N6)nc(OCC56CCCN5CC(F)C6)nc4c3F)c12 (stereo unspecified) + CC(Nc1ccc2c(c1)OCCn1cc(N3C(=O)OCC3C(F)F)nc1-2)C(N)=O
IC50 (second compound 0.00316 µM): > 10 µM
IC50 (second compound 0.01 µM): > 10 µM
IC50 (second compound 0.0316 µM): > 10 µM
IC50 (second compound 0.1 µM): > 10 µM
IC50 (second compound 0.316 µM): > 10 µM
IC50 (second compound 1 µM): > 10 µM
viability, T/C [1]: 91.8%
viability, T/C [2]: 96.8%
viability, T/C [3]: 97.4%
viability, T/C [4]: 95.5%
viability, T/C [5]: 99.3%
viability, T/C [6]: 99.3%
viability, T/C [7]: 97.7%
viability, T/C [8]: 99.9%
viability, T/C [9]: 102%
viability, T/C [10]: 110%
viability, T/C [11]: 116%
viability, T/C [12]: 98.9%
viability, T/C [13]: 100%
viability, T/C [14]: 113%
viability, T/C [15]: 109%
viability, T/C [16]: 99.1%
viability, T/C [17]: 109%
viability, T/C [18]: 104%
viability, T/C [19]: 118%
viability, T/C [20]: 94.5%
viability, T/C [21]: 108%
viability, T/C [22]: 104%
viability, T/C [23]: 102%
viability, T/C [24]: 97%
viability, T/C [25]: 91%
viability, T/C [26]: 81.6%
viability, T/C [27]: 74.2%
viability, T/C [28]: 78.8%
viability, T/C [29]: 83%
viability, T/C [30]: 76.9%
viability, T/C [31]: 60.6%
viability, T/C [32]: 62.2%
viability, T/C [33]: 61.2%
viability, T/C [34]: 58.9%
viability, T/C [35]: 58.6%
viability, T/C [36]: 45.6%

CC1(C)CCC(Nc2ncc(C(F)(F)F)c(-c3c[nH]c4c(P(C)(C)=O)c(C#N)ccc34)n2)CN1 (stereo unspecified) + CC(Nc1ncnc2nc[nH]c12)c1cc2cccc(Cl)c2c(=O)n1-c1ccccc1
IC50 (second compound 0.0316 µM): < 0.0316 µM
IC50 (second compound 0.1 µM): < 0.0316 µM
IC50 (second compound 0.316 µM): < 0.0316 µM
IC50 (second compound 1 µM): < 0.0316 µM
IC50 (second compound 3.16 µM): < 0.0316 µM
IC50 (second compound 10 µM): < 0.0316 µM
viability, T/C [13]: 54.2%
viability, T/C [14]: 46.3%
viability, T/C [15]: 46.9%
viability, T/C [16]: 48%
viability, T/C [17]: 50.5%
viability, T/C [18]: 60.4%
viability, T/C [19]: 47.3%
viability, T/C [20]: 49.3%
viability, T/C [21]: 47.3%
viability, T/C [22]: 46.8%
viability, T/C [23]: 50.3%
viability, T/C [24]: 66.6%
viability, T/C [25]: 49.3%
viability, T/C [26]: 44.3%
viability, T/C [27]: 44.3%
viability, T/C [28]: 43.8%
viability, T/C [29]: 51.8%
viability, T/C [30]: 62.3%
viability, T/C [31]: 47.4%
viability, T/C [32]: 46.8%
viability, T/C [33]: 45.5%
viability, T/C [34]: 49.2%
viability, T/C [35]: 54%
viability, T/C [36]: 58.2%
viability, T/C (second compound 3.16 µM, first compound 0.0316 µM): 49.2%
viability, T/C (second compound 3.16 µM, first compound 0.1 µM): 45.4%
viability, T/C (second compound 3.16 µM, first compound 0.316 µM): 42.7%
viability, T/C (second compound 3.16 µM, first compound 1 µM): 45.8%
viability, T/C (second compound 3.16 µM, first compound 3.16 µM): 43.7%
viability, T/C (second compound 3.16 µM, first compound 10 µM): 50.3%
viability, T/C (second compound 10 µM, first compound 0.0316 µM): 42.1%
viability, T/C (second compound 10 µM, first compound 0.1 µM): 36.2%
viability, T/C (second compound 10 µM, first compound 0.316 µM): 35%
viability, T/C (second compound 10 µM, first compound 1 µM): 34.5%
viability, T/C (second compound 10 µM, first compound 3.16 µM): 38.1%
viability, T/C (second compound 10 µM, first compound 10 µM): 38.1%

Cn1nccc1Nc1nccc(-c2ccn(C(CO)c3ccc(Cl)c(F)c3)c(=O)c2)n1 (stereo unspecified) + COc1c(OCCCN2CCOCC2)ccc2c3n(c(=NC(=O)c4cnc(N)nc4)nc12)CCN3
IC50 (second compound 0.00316 µM): > 10 µM
IC50 (second compound 0.01 µM): > 10 µM
IC50 (second compound 0.0316 µM): > 10 µM
IC50 (second compound 0.1 µM): < 0.0316 µM
IC50 (second compound 0.316 µM): < 0.0316 µM
IC50 (second compound 1 µM): < 0.0316 µM
viability, T/C [1]: 100%
viability, T/C [2]: 97%
viability, T/C [3]: 106%
viability, T/C [4]: 111%
viability, T/C [5]: 102%
viability, T/C [6]: 90.1%
viability, T/C [7]: 104%
viability, T/C [8]: 108%
viability, T/C [9]: 97.8%
viability, T/C [10]: 106%
viability, T/C [11]: 94%
viability, T/C [12]: 89.5%
viability, T/C [13]: 75.8%
viability, T/C [14]: 83.2%
viability, T/C [15]: 69.5%
viability, T/C [16]: 77.1%
viability, T/C [17]: 66.5%
viability, T/C [18]: 55.6%
viability, T/C [19]: 38.2%
viability, T/C [20]: 43.3%
viability, T/C [21]: 41%
viability, T/C [22]: 38.4%
viability, T/C [23]: 34.7%
viability, T/C [24]: 32%
viability, T/C [25]: 16.6%
viability, T/C [26]: 15.3%
viability, T/C [27]: 12.2%
viability, T/C [28]: 9.87%
viability, T/C [29]: 9.43%
viability, T/C [30]: 7.53%
viability, T/C [31]: 10.9%
viability, T/C [32]: 9.68%
viability, T/C [33]: 7.11%
viability, T/C [34]: 5.54%
viability, T/C [35]: 4.07%
viability, T/C [36]: 2.53%
